Assays:
Drosophila [1] = assay: X-ray caused loss of X-chromosomes in late oocyte of Drosophila; format: in vivo; conditions: 1000 Roentgens
Drosophila [2] = assay: Sterol-deficit diet and both drugs: frequency of X-chromosomes loss in late oocytes of Drosophila; format: in vivo; conditions: yeast of wild type
Description: The classic genetic model was used, based on the well-known method: the frequency of mutations in Drosophila (fruit flies) caused by X-rays. It is known that the frequency of these mutations can be increased by adding to the food of females certain membrane destabilizers (we used Polyene Antibiotics—Amphotericin B), or by the use of a special diet. Like all insects, Drosophila obtain all of their sterols from food (yeast for Drosophila). A special diet rich with Nistatin (Polyene antibiotic) resistant yeast was used.
The frequency of the loss of x-chromosomes (males excluded) was measured after crossing with the […]. Females were given a dose of 1000 Roentgens 5 days before being given the food additive or “special diet”.
Influence of sterol-deficit diet and both drugs on the frequency of X-chromosomes loss in late oocytes of Drosophila. Groups 1-4 received yeast of wild type, groups 5,6 (diet) received nistatin resistant yeasts meaning groups 5,6 had abnormal sterols in membranes: […]

Water solubility = format: physicochemical

| solubility (Water solubility) | Compound | Frequency of the loss of X-chromosomes, % (Drosophila [1]; 1.0 mkg/female) | Frequency of the loss of X-chromosomes, % (Drosophila [1]; 5.0 mkg/female) | Frequency of the loss of X-chromosomes, % (Drosophila [1]; 10.0 mkg/female) | Frequency of the loss of X-chromosomes, % (Drosophila [1]; 15.0 mkg/female) | Frequency of the loss of X-chromosomes, % (Drosophila [1]; 20.0 mkg/female) | Frequency of X-Chromosomes loss, % (Drosophila [2]) |
| --- | --- | --- | --- | --- | --- | --- | --- |
|  | C[C@@H]1[C@H](O)[C@@H](C)/C=C/C=C/C=C/C=C/C=C/C=C/C=C/[C@H](O[C@@H]2O[C@H](C)[C@@H](O)[C@H](N)[C@@H]2O)C[C@@H]2O[C@](O)(C[C@@H](O)C[C@@H](O)[C@H](O)CC[C@@H](O)C[C@@H](O)CC(=O)O[C@H]1C)C[C@H](O)[C@H]2C(=O)O [Amphotericin B, reference compound] | 1.4 ± 0.19% | 2.1 ± 0.21% | 3.6 ± 0.35% | 4.1 ± 0.41% | 4.2 ± 0.61% | 4.3 ± 0.29% |
| < 3000 µg/mL | O=C1CCC(N2C(=O)c3ccccc3C2=O)C(=O)N1 (stereo not shown) [thalidomides, thalidomide] |  |  |  |  |  |  |
